Measurements published in patent US6124431A, “Peptide derivatives” (Teikoku Hormone Mfg. Co., Ltd., priority 1993, dated 2000).

System: mouse leukemia P388 cells
Experiment: Assay of antitumor activity (increase in life span of mice implanted with P388 leukemia)
Format: in vivo
Conditions: CDF1 mice, P388 cells implanted i.p.; compound i.p. on day 1 and day 5; observed for 60 days; ILS relative to dolastatin 10 = 100
Experimental: (1) Assay of antitumor activity
0.1 ml (10^6 cells/mouse) portions of mouse leukemia P388 cells were implanted intraperitoneally into 7-week-old CDF1 mice. […] From the results were calculated increases in life span (ILS, %) according to the following equation. In the following equation, T means median survival days of the chemical administration group, and C means median survival days of the control group. [formula]
Antitumor activity is shown as the relative ratio in the case where the ILS of dolastatin 10 is supposed to be 100.

Substance: dolastatin 10
- Antitumor activity (relative ratio of ILS, ILS of dolastatin 10 supposed to be 100): 100
